The results in this text go back to patent US20230116602A1, “MCL1 INHIBITORS AND USES THEREOF” (California Institute of Technology, priority 2019, published 2023).

The target in test [1] is MCL1 (Homo sapiens, UniProt Q07820). Briefly: MCL1 affinity assay (competition binding, qPCR readout). The conditions noted are these: recombinant MCL1, 11-point 3-fold dilution series. The essentials:
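Kds derived from an 11-point 3-fold compound series measured by qPCR of protein eluted from ligand beads. Recombinant, DNA-tagged protein from E. coli or HEK-293 was mixed with compound and peptide-liganded beads in SeaBlock/PBS/Tween/DTT buffer for 1 hour at room temperature (0.9% DMSO).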
(In qPCR the cycle at which signal appears reflects the starting amount.)

Test [2] deals with drug-resistant cell lines of Table 3. Briefly: Cell line growth retardation assay, resistant cohort. Conditions: Homo sapiens, 144 h; arithmetic mean of IC50s over the resistant cohort of Table 3, 6 days growth; read-out: AvgRes IC50. Format: cell-based, Human. The essentials: (§1)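 Over 6 days of treatment at six concentrations (0.0032–10 μM), given after a 24 h post-seeding rest, population doublings were counted by imaging against a pre-dose baseline and compared with vehicle. Per-line IC50 values came from dose-response fits; cohort averages used arithmetic means, with sensitive/resistant grouping based on response to reference MCL1 inhibitors.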

For test [3], the system named is drug-sensitive cell lines of Table 3. Briefly: Cell line growth retardation assay, sensitive cohort. It is filed as cell-based, Human. The conditions noted are these: for IC50: Homo sapiens, 144 h, arithmetic mean of IC50s over the sensitive cohort of Table 3, 6 days growth, read-out: AvgSen IC50; for Fold Diff: average IC50 of resistant cohort divided by average IC50 of sensitive cohort. In outline: as §1

Chain of MCL1 (Q07820 whole entry): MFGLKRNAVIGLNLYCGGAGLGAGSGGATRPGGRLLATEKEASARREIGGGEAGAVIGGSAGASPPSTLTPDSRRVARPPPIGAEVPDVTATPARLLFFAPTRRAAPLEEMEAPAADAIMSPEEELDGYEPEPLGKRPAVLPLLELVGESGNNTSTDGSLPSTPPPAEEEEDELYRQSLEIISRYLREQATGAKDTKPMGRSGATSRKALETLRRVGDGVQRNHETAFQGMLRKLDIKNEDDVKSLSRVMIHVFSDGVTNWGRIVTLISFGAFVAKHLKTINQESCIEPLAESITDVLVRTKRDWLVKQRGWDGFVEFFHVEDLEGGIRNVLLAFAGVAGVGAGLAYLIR

Broadly, the Kd is the free concentration of one partner at which half of the binding sites on the other are occupied at equilibrium, for simple one-to-one binding. For orientation: IC50 means the concentration needed to halve the response being measured. As to `CCn1cc(-c2ncc3snc(O[C@H](Cc4ccccc4OCc4ccnc(-c5ccccc5OC)n4)C(=O)O)c3c2-c2ccc(OCCN3CCN(C)CC3)c(Cl)c2C)cn1` (atropisomer, axis not shown) [Compound 75], in test [1], the Kd is 101 to 500 nM. Also, the IC50 in test [2] was more than 5000 nM. In test [3], the IC50 is more than 5000 nM and the “Fold Diff” value is given as “− (“−” represents a fold difference less than 10)”.

With `Cc1c(-c2cc(-n3c(C)c(Cl)c4cc(Cl)cnc43)cc3snc(O[C@H](Cc4ccccc4OCc4ccnn4CC(F)(F)F)C(=O)O)c23)ccc(OCCN2CCN(C)CC2)c1Cl` [Compound 100], in test [1], the Kd is 501 to 1500 nM. The IC50 is more than 5000 nM in test [2] and 1000 to 5000 nM in test [3]. The “Fold Diff” value in test [3] was “− (“−” represents a fold difference less than 10)”.

As to `COc1ccccc1-c1nccc(COc2ccccc2C[C@@H](Oc2nsc3cnc(-c4cccc(F)c4)c(-c4ccc(OCCN5CCN(C)CC5)c(Cl)c4C)c23)C(=O)O)n1` (atropisomer, axis not shown) [Compound 35], in test [1], the Kd was not above 100 nM. In addition, the IC50 in test [2] is more than 5000 nM. In test [3], the IC50 was not above 1000 nM and the “Fold Diff” value is “+ (“+” represents a fold difference of 10 or more)”.

As for `COc1ccccc1-c1nccc(COc2ccccc2C[C@@H](Oc2nsc3cnc(-c4cc(F)c(F)c(F)c4)c(-c4ccc(OCCN5CCN(C)CC5)c(Cl)c4C)c23)C(=O)O)n1` (atropisomer, axis not shown) [Compound 84], in test [1], the Kd is not above 100 nM. The IC50 in test [2] is more than 5000 nM; in test [3] it was not above 1000 nM. Further, the “Fold Diff” value in test [3] is listed as “+ (“+” represents a fold difference of 10 or more)”.

With `COc1ccccc1-c1nccc(COc2ccccc2C[C@@H](Oc2nsc3cnc(-c4cnn(CC(C)C)c4)c(-c4ccc(OCCN5CCN(C)CC5)c(Cl)c4C)c23)C(=O)O)n1` (atropisomer, axis not shown) [Compound 79], the Kd in test [1] lay within 501 to 1500 nM. Besides, in test [2], the IC50 is 1000 to 5000 nM. Besides, in test [3], the IC50 is not above 1000 nM and the “Fold Diff” value was “− (“−” represents a fold difference less than 10)”.

Take `COc1ccccc1-c1nccc(COc2ccccc2C[C@@H](Oc2nsc3cnc(C4CCC4)c(-c4ccc(OCCN5CCN(C)CC5)c(Cl)c4C)c23)C(=O)O)n1` (atropisomer, axis not shown) [Compound 36]: the Kd in test [1] was not above 100 nM. Also, the IC50 in test [2] was more than 5000 nM. In test [3], the IC50 is not above 1000 nM and the “Fold Diff” value was “+ (“+” represents a fold difference of 10 or more)”.

In the case of `COc1ccccc1C[C@@H](Oc1nsc2cnc(-c3cccc(F)c3)c(-c3ccc(OCCN4CCN(C)CC4)c(Cl)c3C)c12)C(=O)O` (atropisomer, axis not shown) [Compound 93], the Kd in test [1] is 101 to 500 nM. In addition, the values for the IC50 in test [2] and in test [3] were more than 5000 nM and 1000 to 5000 nM, respectively. The “Fold Diff” value in test [3] was “− (“−” represents a fold difference less than 10)”.

For `Cc1c(-c2c(C3CCC3)ncc3snc(O[C@H](Cc4ccccc4OCc4ccnc(C5CC5)n4)C(=O)O)c23)ccc(OCCN2CCN(C)CC2)c1Cl` (atropisomer, axis not shown) [Compound 109], the Kd in test [1] is 101 to 500 nM. In test [2], the IC50 was more than 5000 nM. In test [3], the IC50 was 1000 to 5000 nM and the “Fold Diff” value is listed as “− (“−” represents a fold difference less than 10)”.

For `Cc1c(-c2c(C3CCC3)ncc3snc(O[C@H](Cc4ccccc4OCc4ccnc(-c5ccc(OCc6ccccc6)nc5)n4)C(=O)O)c23)ccc(OCCN2CCN(C)CC2)c1Cl` (atropisomer, axis not shown) [Compound 113], the Kd in test [1] was more than 1500 nM. Moreover, the IC50 in test [2] and in test [3] was more than 5000 nM in each case. In addition, the “Fold Diff” value in test [3] is “− (“−” represents a fold difference less than 10)”.

As for `COc1ccccc1-c1nccc(COc2ccccc2C[C@@H](Oc2nsc3cnc(-c4cccc(F)c4)c(-c4ccc(OCCC5CCN(C)CC5)c(Cl)c4C)c23)C(=O)O)n1` (atropisomer, axis not shown) [Compound 102], in test [1], the Kd was not above 100 nM. The IC50 in test [2] was more than 5000 nM. In test [3], the IC50 was 1000 to 5000 nM and the “Fold Diff” value is “− (“−” represents a fold difference less than 10)”.
